Like-named read-outs stand apart in the source and are kept apart here.
Assays:
[1] = target: T1, human recombinant adrenergic α1D receptor (Homo sapiens, UniProt P25100); assay: Adrenergic α1D radioligand binding ([3H]Prozosin); set-up: Inhibition of ligand binding, Adren. alpha1D: concentration or dose not given beside the values; conditions: for inhibition at 1 µM: compounds screened at 1 μM, read-out: Inhibition of ligand binding, Adren. alpha1D (percent inhibition of specific binding); for Inhibition of ligand binding, Adren. alpha1D: percent inhibition of specific binding
T1 construct: expressed in transfected cells; host or cells: HEK-293 cells
T1 sequence (P25100 1-572): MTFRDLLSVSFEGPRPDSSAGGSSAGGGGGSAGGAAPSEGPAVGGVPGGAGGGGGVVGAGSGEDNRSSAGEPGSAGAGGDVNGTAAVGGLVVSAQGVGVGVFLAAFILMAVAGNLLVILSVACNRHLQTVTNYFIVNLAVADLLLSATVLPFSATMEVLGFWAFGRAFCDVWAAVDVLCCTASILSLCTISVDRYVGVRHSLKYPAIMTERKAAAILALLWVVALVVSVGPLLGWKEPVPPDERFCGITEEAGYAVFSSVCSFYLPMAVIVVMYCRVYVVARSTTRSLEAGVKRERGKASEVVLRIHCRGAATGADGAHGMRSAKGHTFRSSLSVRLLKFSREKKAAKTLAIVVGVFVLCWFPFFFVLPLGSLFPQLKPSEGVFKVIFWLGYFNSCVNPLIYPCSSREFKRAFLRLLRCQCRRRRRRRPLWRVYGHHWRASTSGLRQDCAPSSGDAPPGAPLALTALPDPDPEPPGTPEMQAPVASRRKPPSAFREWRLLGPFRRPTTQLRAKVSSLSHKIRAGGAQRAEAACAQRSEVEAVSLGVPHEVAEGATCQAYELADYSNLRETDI
Description: Compounds of invention were incubated with 0.6 nM [^3H]Prozosin for 60 minutes at 25° C. Non-specific binding was estimated in the presence of 10 μM phentolamine. Receptor proteins were filtered and washed, the filters were then counted to determine [^3H]Prozosin specifically bound. […] Biochemical assay results are presented as the percent inhibition of specific binding in Table 6.

[2] = target: T2, human recombinant histamine H2 receptor (Homo sapiens, UniProt P25021); assay: Histamine H2 radioligand binding ([125I]Aminopotentidine); conditions: for inhibition at 0.1 µM: 0.1 μM compound; for inhibition at 0.3 µM: 0.3 μM compound
T2 construct: expressed in transfected cells; host or cells: CHO-K1 cells
T2 sequence (P25021 whole entry): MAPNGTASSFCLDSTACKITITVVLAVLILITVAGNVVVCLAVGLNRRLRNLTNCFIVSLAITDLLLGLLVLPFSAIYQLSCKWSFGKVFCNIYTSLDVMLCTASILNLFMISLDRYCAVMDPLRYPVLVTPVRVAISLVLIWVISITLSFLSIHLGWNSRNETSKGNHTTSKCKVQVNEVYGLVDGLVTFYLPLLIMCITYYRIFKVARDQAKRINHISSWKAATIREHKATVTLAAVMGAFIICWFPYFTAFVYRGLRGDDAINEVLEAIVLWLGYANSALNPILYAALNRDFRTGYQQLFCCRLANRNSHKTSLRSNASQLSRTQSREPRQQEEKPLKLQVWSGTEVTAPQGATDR
Description: Non-specific binding was estimated in the presence of 3 μM Tiotidine. […] Biochemical assay results are presented as the percent inhibition of specific binding in Table 5.
Non-specific binding was estimated in the presence of 3 μM Tiotidine. […] Compounds were screened at 1 μM, using 1% DMSO as vehicle. Biochemical assay results are presented as the percent inhibition of specific binding in Table 6.

[3] = target: T3, human recombinant adrenergic α2A receptor (Homo sapiens, UniProt P08913); assay: Adrenergic α2A radioligand binding ([3H]MK-912); set-up: Inhibition of ligand binding, Adren. alpha2A: concentration or dose not given beside the values; conditions: for inhibition at 1 µM: compounds screened at 1 μM, read-out: Inhibition of ligand binding, Adren. alpha2A (percent inhibition of specific binding); for Inhibition of ligand binding, Adren. alpha2A: percent inhibition of specific binding
T3 construct: expressed in transfected cells; host or cells: insect Sf9 cells
T3 sequence (P08913 1-465): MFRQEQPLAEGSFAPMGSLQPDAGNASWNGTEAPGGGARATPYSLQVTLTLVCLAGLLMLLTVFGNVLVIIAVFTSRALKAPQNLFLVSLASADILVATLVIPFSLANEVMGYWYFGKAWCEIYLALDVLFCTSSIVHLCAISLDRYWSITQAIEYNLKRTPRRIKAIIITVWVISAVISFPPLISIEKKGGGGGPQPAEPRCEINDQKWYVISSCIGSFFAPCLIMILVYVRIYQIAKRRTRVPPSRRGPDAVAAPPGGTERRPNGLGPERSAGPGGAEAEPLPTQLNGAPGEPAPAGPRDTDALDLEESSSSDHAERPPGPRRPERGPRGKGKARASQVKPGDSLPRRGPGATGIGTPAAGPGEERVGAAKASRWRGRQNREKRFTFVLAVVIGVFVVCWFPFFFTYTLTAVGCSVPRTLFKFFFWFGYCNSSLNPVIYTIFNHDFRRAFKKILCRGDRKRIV
Description: To evaluate in radioligand binding assays the activity of compounds of the invention, human recombinant adrenergic α2A receptor expressed in insect Sf9 cells (Uhlen S et al. J Pharmacol Exp Ther. 271:1558, 1994) in a modified Tris-HCl buffer (50 mM Tris-HCl, pH 7.4, 12.5 mM MgCl2, 2 mM EDTA) was used. Compounds of invention were incubated with 1 nM [^3H]MK-912 for 60 minutes at 25° C. MK912 is (2S-trans)-1,3,4,5′,6,6′,7,12b-octahydro-1′,3′-dimethyl-spiro[2H-benzofuro[2,3-a]quinolizine-2,4′(1′H)-pyrimidin]-2′(3′H)-one hydrochloride Non-specific binding was estimated in the presence of 10 μM WB-4101 (2-(2,6-Dimethoxyphenoxyethyl)aminomethyl-1,4-benzodioxane hydrochloride). Receptor proteins were filtered and washed, the filters were then counted to determine [^3H]MK-912 specifically bound. […] Biochemical assay results are presented as the percent inhibition of specific binding in Table 6.

[4] = compounds screened at 1 μM, read-out: Inhibition of ligand binding, Hist. H2 (percent inhibition of specific binding)
[5] = percent inhibition of specific binding, screened at 1 μM, read-out: Inhibition of ligand binding, Hist. H2
[6] = 1 μM compound, 0.1 nM [125I]Aminopotentidine, read-out: Histamine Binding H2, percent inhibition of specific binding
[7] = 0.1 nM [125I]Aminopotentidine, read-out: Histamine Binding H2, percent inhibition of specific binding

Row | SMILES | inhibition at 1 µM [1] [%] | inhibition at 1 µM [2, 4] [%] | inhibition at 1 µM [3] [%] | Inhibition of ligand binding, Adren. alpha1D [1] [%] | inhibition at 1 µM [2, 5] [%] | Inhibition of ligand binding, Adren. alpha2A [3] [%] | inhibition at 1 µM [2, 6] [%] | inhibition at 0.1 µM [2, 7] [%] | inhibition at 0.3 µM [2, 7] [%]
1 | CN1CCc2c(c3ccncc3n2CCc2ccccn2)C1 [Compound 481, 7-aza-2-methyl-5-(2-(pyridin-2-yl)ethyl)-2,3,4,5-tetrahydro-1H-pyrido[4,3-b]indole] | 3 | -17 | 3 | – | – | – | – | – | –
2 | Cc1ccc2c(c1)c1c(n2CCc2cnc(C)nc2)CCN(C)C1 [Compound 323, 2,3,4,5-tetrahydro-2,8-dimethyl-5-(2-(2-methylpyrimidin-5-yl)ethyl)-1H-pyrido[4,3-b]indole] | – | – | – | 49 | 17 | 6 | – | – | –
3 | CC1CCN(C(=O)Cn2c3c(c4cc(Cl)ccc42)CN(C)CC3)CC1 [Compound 237, 2-(8-chloro-1,2,3,4-tetrahydro-2-methylpyrido[4,3-b]indol-5-yl)-1-(4-methylpiperidin-1-yl)ethanone] | – | – | – | 14 | 24 | 26 | 24 | – | –
4 | Cc1ccc(CCn2c3c(c4cc(I)ccc42)CN(C)CC3)cn1 [Compound 485, 2,3,4,5-tetrahydro-8-iodo-2-methyl-5-(2-(6-methylpyridin-3-yl)ethyl)-1H-pyrido[4,3-b]indole] | 69 | 71 | 86 | – | – | – | – | – | –
5 | Cc1ccc2c(c1)c1c(n2CCc2cnc(C)cn2)CCN(C)C1 [Compound 322, 2,8-dimethyl-5-(2-(5-methylpyrazin-2-yl)ethyl)-2,3,4,5-tetrahydro-1H-pyrido[4,3-b]indole] | – | – | – | 66 | 20 | 44 | – | – | –
6 | CC(=O)N1CCN(C(=O)Cn2c3c(c4cc(Cl)ccc42)CN(C)CC3)CC1 [Compound 297, 1-(4-Acetyl-piperazin-1-yl)-2-(8-chloro-2-methyl-1,2,3,4-tetrahydro-pyrido[4,3-b]indol-5-yl)-ethanone] | – | – | – | 15 | 3 | −2 | – | – | –
7 | COc1ccc(CCn2c3c(c4cc(Cl)ccc42)CN(C)CC3)cc1F [Compound 337, 5-(3-fluoro-4-methoxyphenethyl)-8-chloro-2,3,4,5-tetrahydro-2-methyl-1H-pyrido[4,3-b]indole] | – | – | – | 97 | 92 | 97 | – | – | –
8 | Cc1ccc2c(c1)c1c(n2CCc2ccc(OC(C)(C)C)cc2)CCN(C)C1 [Compound 335, 5-(4-tert-butoxyphenethyl)-2,3,4,5-tetrahydro-2,8-dimethyl-1H-pyrido[4,3-b]indole] | – | – | – | 91 | 77 | 31 | – | – | –
9 | CN1CCc2c(c3cc(Cl)ccc3n2CC(=O)N2CCOCC2)C1 [Compound 238, 2-(8-chloro-1,2,3,4-tetrahydro-2-methylpyrido[4,3-b]indol-5-yl)-1-morpholinoethanone] | – | – | – | 2 | 6 | −13 | 6 | – | –
10 | CCOc1ccc(CCn2c3c(c4cc(C)ccc42)CN(C)CC3)cc1 [Compound 334, 5-[2-(4-Ethoxy-phenyl)-ethyl]-2,8-dimethyl-2,3,4,5-tetrahydro-1H-pyrido[4,3-b]indole] | – | – | – | 110 | 91 | 101 | – | – | –
11 | CN1CCc2c(c3cc(Cl)ccc3n2CC(=O)N2CCSCC2)C1 [Compound 239, 2-(8-chloro-1,2,3,4-tetrahydro-2-methylpyrido[4,3-b]indol-5-yl)-1-thiomorpholinoethanone] | – | – | – | 3 | 10 | 0 | 10 | – | –
12 | CN1CCc2c(c3cc(Cl)ccc3n2CC(=O)N2CCCC2)C1 [Compound 243, 2-(8-chloro-1,2,3,4-tetrahydro-2-methylpyrido[4,3-b]indol-5-yl)-1-(pyrrolidin-1-yl)ethanone] | – | – | – | 8 | 17 | 3 | 17 | – | –
13 | Cc1ccc2c(c1)c1c(n2CCc2ccccc2)CCN(C)C1 [Compound 20, 2,3,4,5-tetrahydro-2,8-dimethyl-5-phenethyl-1H-pyrido[4,3-b]indole] | – | – | – | 94 | 87 | 98 | 72 | 33 | 51
14 | CCN1CCc2c(c3cc(C)ccc3n2CCc2ccncc2)C1 [Compound 27, 2-ethyl-2,3,4,5-tetrahydro-8-methyl-5-(2-(pyridin-4-yl)ethyl)-1H-pyrido[4,3-b]indole] | – | – | – | 63 | 32 | 53 | 32 | – | –
15 | CN1CCc2c(c3cc(Cl)ccc3n2CC(=O)N2CC[S+]([O-])CC2)C1 [Compound 296, 2-(8-Chloro-2-methyl-1,2,3,4-tetrahydro-pyrido[4,3-b]indol-5-yl)-1-(1-oxo-1l4-thiomorpholin-4-yl)-ethanone] | – | – | – | 3 | -4 | 1 | – | – | –
16 | CN1CCc2c(c3cc(Cl)ccc3n2CCC(=O)N2CCCCC2)C1 [Compound 326, 3-(8-chloro-1,2,3,4-tetrahydro-2-methylpyrido[4,3-b]indol-5-yl)-1-(piperidin-1-yl)propan-1-one] | – | – | – | 40 | 12 | 55 | – | – | –
17 | Cc1ccc(CCn2c3c(c4cc(C)ccc42)CN(C)CC3)cc1 [Compound 25, 2,3,4,5-tetrahydro-2,8-dimethyl-5-(4-methylphenethyl)-1H-pyrido[4,3-b]indole] | – | – | – | – | 96 | 99 | 96 | 54 | 75
18 | Cc1ccc2c(c1)c1c(n2CCc2ccccn2)CCN(C)C1 [Compound 21, 2,3,4,5-tetrahydro-2,8-dimethyl-5-(2-(pyridin-2-yl)ethyl)-1H-pyrido[4,3-b]indole] | – | – | – | 76 | 45 | – | 45 | – | –

From US9096591B2, “Tetracyclic compounds” (Medivation Technologies, Inc., priority 2007, dated 2015)
